Measurements as given in patent US20260022142A1, “MACROCYCLIC IMMUNOMODULATORS” (Bristol-Myers Squibb Company, priority 2022, published 2026).
pIC50: −log10 of the molar value. Bridge positions count the residues as written; N and C are the ends. Square brackets hold non-standard residues; d marks the D form. Peptide text beside a SMILES is read from it. * marks the point of attachment. ξ: configuration not given here. Bip = N[C@@H](Cc1ccc(-c2ccccc2)cc1)C(=O)O; Phe(3-Me) = Cc1cccc(C[C@H](N)C(=O)O)c1; hArg = N=C(N)NCCCC[C@H](N)C(=O)O; Cha = N[C@@H](CC1CCCCC1)C(=O)O; Cit = NC(=O)NCCC[C@H](N)C(=O)O; aThr = C[C@H](O)[C@H](N)C(=O)O; Thr(3ξ) = CC(O)[C@H](N)C(=O)O; Carboxymethyl = O=C(O)C*; Orn = NCCC[C@H](N)C(=O)O; Aun = NCCCCCCCCCCC(=O)O; Dab = NCC[C@H](N)C(=O)O; Dap = NC[C@H](N)C(=O)O; AEEA = NCCOCCOCC(=O)O

target: T1, PD-1/PD-L1 interaction (PE-labeled human PD-L1-Ig binding to Jurkat cell line over-expressing human PD-1) (Homo sapiens, UniProt Q15116); assay: Jurkat-PD-1 Cell Binding High-Content Screening Assay (CBA); type: cell-based; conditions: Jurkat cell line over-expressing human PD-1; PE-labeled PD-L1-Ig 20 nM final; read-out: Jurkat hPD1-PDL1 IC50
T1 construct: expressed in transfected cells; host or cells: Jurkat
T1 sequence (Q15116 25-288): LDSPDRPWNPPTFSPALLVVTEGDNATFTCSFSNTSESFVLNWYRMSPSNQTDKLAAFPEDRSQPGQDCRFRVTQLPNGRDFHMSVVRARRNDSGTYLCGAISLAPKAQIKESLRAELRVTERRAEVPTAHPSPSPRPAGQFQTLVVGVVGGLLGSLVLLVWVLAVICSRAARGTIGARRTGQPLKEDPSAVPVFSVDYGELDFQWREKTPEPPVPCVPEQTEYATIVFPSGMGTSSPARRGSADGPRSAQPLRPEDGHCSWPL
Summary of the method: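 Jurkat cells over-expressing human PD-1 (8×10^3 per well, DMEM/10% FCS) preincubated with compound 2 h at 37° C, then PE-labeled human PD-L1-Ig (20 nM final) added for 1 h. Cells fixed with paraformaldehyde, Hoechst-stained, and bound fluorescence quantified by high-content imaging.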

Row | Structure (SMILES) | pIC50
1 | Cc1cccc(C[C@@H]2NC(=O)[C@H](CC(=O)O)NC(=O)[C@H](Cc3ccc(OCC(=O)O)cc3)NC(=O)[C@H](CCCCNC(=N)N)NC(=O)CSC[C@@H](C(=O)NCCOCCOCC(=O)N[C@@H](CCN)C(=O)NCCCCCCCCCCC(=O)O)NC(=O)[C@H](CCCN)NC(=O)[C@H](C(C)C)NC(=O)[C@H](CC3CCCCC3)NC(=O)[C@H](CCN)NC(=O)[C@@H](CC(C)C)NC(=O)[C@H](CCCN)NC(=O)[C@H](C(C)C)NC(=O)[C@H](Cc3ccc(-c4ccccc4)cc3)NC(=O)[C@H](C(C)C)NC2=O)c1 [Compound 3248] ({CH2CO}-[hArg]Y(Carboxymethyl)D[Phe(3-Me)]V[Bip]V[Orn][dL][Dab][Cha]V[Orn]C[AEEA][Dab][Aun]-OH; thioether N-14) | 8.44
2 | Cc1cccc(C[C@@H]2NC(=O)[C@H](CC(=O)O)NC(=O)[C@H](Cc3ccc(OCC(=O)O)cc3)NC(=O)[C@H](CCCCNC(=N)N)NC(=O)CSC[C@@H](C(=O)NCCOCCOCC(=O)N[C@@H](CCN)C(=O)NCCCCCCCCCCC(=O)O)NC(=O)[C@H](CCCN)NC(=O)[C@H](C(C)C)NC(=O)[C@H](CC3CCCCC3)NC(=O)[C@H](CN)NC(=O)[C@@H](CC(C)C)NC(=O)[C@H](CCCN)NC(=O)[C@H](C(C)C)NC(=O)[C@H](Cc3ccc(-c4ccccc4)cc3)NC(=O)[C@H](C(C)C)NC2=O)c1 [Compound 3249] ({CH2CO}-[hArg]Y(Carboxymethyl)D[Phe(3-Me)]V[Bip]V[Orn][dL][Dap][Cha]V[Orn]C[AEEA][Dab][Aun]-OH; thioether N-14) | 7.59
3 | Cc1cccc(C[C@@H]2NC(=O)[C@H](CC(=O)O)NC(=O)[C@H](Cc3ccc(OCC(=O)O)cc3)NC(=O)[C@H](CCCCNC(=N)N)NC(=O)CSC[C@@H](C(=O)NCCOCCOCC(=O)N[C@@H](CCN)C(=O)NCCCCCCCCCCC(=O)O)NC(=O)[C@H](CCCN)NC(=O)[C@H](C(C)C)NC(=O)[C@H](CC3CCCCC3)NC(=O)[C@H](CCN)NC(=O)[C@@H](CC(C)C)NC(=O)[C@H](CCN)NC(=O)[C@H](C(C)C)NC(=O)[C@H](Cc3ccc(-c4ccccc4)cc3)NC(=O)[C@H](C(C)C)NC2=O)c1 [Compound 3251] ({CH2CO}-[hArg]Y(Carboxymethyl)D[Phe(3-Me)]V[Bip]V[Dab][dL][Dab][Cha]V[Orn]C[AEEA][Dab][Aun]-OH; thioether N-14) | 8.24
4 | Cc1cccc(C[C@@H]2NC(=O)[C@H](CC(=O)O)NC(=O)[C@H](Cc3ccc(OCC(=O)O)cc3)NC(=O)[C@H](CCCCNC(=N)N)NC(=O)CSC[C@@H](C(=O)N[C@@H](CCN)C(=O)NCCOCCOCC(=O)NCCCCCCCCCCC(=O)O)NC(=O)[C@H](CCCN)NC(=O)[C@H](C(C)C)NC(=O)[C@H](CC3CCCCC3)NC(=O)[C@H](CCN)NC(=O)[C@@H](CC(C)C)NC(=O)[C@H](CCN)NC(=O)[C@H](C(C)C)NC(=O)[C@H](Cc3ccc(-c4ccccc4)cc3)NC(=O)[C@H](C(C)C)NC2=O)c1 [Compound 3252] ({CH2CO}-[hArg]Y(Carboxymethyl)D[Phe(3-Me)]V[Bip]V[Dab][dL][Dab][Cha]V[Orn]C[Dab][AEEA][Aun]-OH; thioether N-14) | 8.13
5 | CC(C)C[C@H]1NC(=O)[C@H](CCN)NC(=O)[C@H](C(C)C)NC(=O)[C@H](Cc2ccc(-c3ccccc3)cc2)NC(=O)[C@H](C(C)C)NC(=O)[C@H](Cc2c[nH]c3ccccc23)NC(=O)[C@H](CC(=O)O)NC(=O)[C@H](Cc2ccc(OCC(=O)O)cc2)NC(=O)[C@H](C(C)O)NC(=O)CSC[C@@H](C(=O)N[C@@H](CCN)C(=O)NCCCCCCCCCCC(=O)O)NC(=O)[C@H](CCCNC(N)=O)NC(=O)[C@H](C(C)C)NC(=O)[C@H](CC2CCCCC2)NC(=O)[C@H](CCN)NC1=O (stereo partly drawn) [Compound 3253] ({CH2CO}-[Thr(3ξ)]Y(Carboxymethyl)DWV[Bip]V[Dab][dL][Dab][Cha]V[Cit]C[Dab][Aun]-OH; thioether N-14) | 8.06
6 | Cc1cccc(C[C@@H]2NC(=O)[C@H](CC(=O)O)NC(=O)[C@H](Cc3ccc(OCC(=O)O)cc3)NC(=O)[C@H](C(C)O)NC(=O)CSC[C@@H](C(=O)N[C@H](CC(N)=O)C(=O)NCCOCCOCC(=O)NCCCCCCCCCCC(=O)O)NC(=O)[C@H](CO)NC(=O)[C@H](C(C)C)NC(=O)[C@H](CC3CCCCC3)NC(=O)[C@H](CCN)NC(=O)[C@@H](CC(C)C)NC(=O)[C@H](CCCN)NC(=O)[C@H](C(C)C)NC(=O)[C@H](Cc3ccc(-c4ccccc4)cc3)NC(=O)[C@H](C(C)C)NC2=O)c1 (stereo partly drawn) [Compound 3254] ({CH2CO}-[Thr(3ξ)]Y(Carboxymethyl)D[Phe(3-Me)]V[Bip]V[Orn][dL][Dab][Cha]VSC[dN][AEEA][Aun]-OH; thioether N-14) | 7.96
7 | CC(C)C[C@H]1NC(=O)[C@H](CCN)NC(=O)[C@H](C(C)C)NC(=O)[C@H](Cc2ccc(-c3ccccc3)cc2)NC(=O)[C@H](C(C)C)NC(=O)[C@H](Cc2c[nH]c3ccccc23)NC(=O)[C@H](CC(=O)O)NC(=O)[C@H](Cc2ccc(OCC(=O)O)cc2)NC(=O)[C@H](CCCCNC(=N)N)NC(=O)CSC[C@@H](C(=O)N[C@@H](CCN)C(=O)NCCCCCCCCCCC(=O)O)NC(=O)[C@H](CCCCN)NC(=O)[C@H](C(C)C)NC(=O)[C@H](CC2CCCCC2)NC(=O)[C@H](CCN)NC1=O [Compound 3255] ({CH2CO}-[hArg]Y(Carboxymethyl)DWV[Bip]V[Dab][dL][Dab][Cha]VKC[Dab][Aun]-OH; thioether N-14) | 7.88
8 | Cc1cccc(C[C@@H]2NC(=O)[C@H](CC(=O)O)NC(=O)[C@H](Cc3ccc(OCC(=O)O)cc3)NC(=O)[C@H]([C@H](C)O)NC(=O)CSC[C@@H](C(=O)N[C@H](CC(N)=O)C(=O)NCCOCCOCC(=O)NCCCCCCCCCCC(=O)O)NC(=O)[C@H](CCCCN)NC(=O)[C@H](C(C)C)NC(=O)[C@H](CC3CCCCC3)NC(=O)[C@H](CCN)NC(=O)[C@@H](CC(C)C)NC(=O)[C@H](CCN)NC(=O)[C@H](C(C)C)NC(=O)[C@H](Cc3ccc(-c4ccccc4)cc3)NC(=O)[C@H](C(C)C)NC2=O)c1 [Compound 3256] ({CH2CO}-[aThr]Y(Carboxymethyl)D[Phe(3-Me)]V[Bip]V[Dab][dL][Dab][Cha]VKC[dN][AEEA][Aun]-OH; thioether N-14) | 8.40
9 | Cc1cccc(C[C@@H]2NC(=O)[C@H](CC(=O)O)NC(=O)[C@H](Cc3ccc(OCC(=O)O)cc3)NC(=O)[C@H](C(C)O)NC(=O)CSC[C@@H](C(=O)NCCOCCOCC(=O)NCCCCCCCCCCC(=O)O)NC(=O)[C@H](CCCCN)NC(=O)[C@H](C(C)C)NC(=O)[C@H](CC3CCCCC3)NC(=O)[C@H](CCN)NC(=O)[C@@H](CC(C)C)NC(=O)[C@H](CCN)NC(=O)[C@H](C(C)C)NC(=O)[C@H](Cc3ccc(-c4ccccc4)cc3)NC(=O)[C@H](C(C)C)NC2=O)c1 (stereo partly drawn) [Compound 3257] ({CH2CO}-[Thr(3ξ)]Y(Carboxymethyl)D[Phe(3-Me)]V[Bip]V[Dab][dL][Dab][Cha]VKC[AEEA][Aun]-OH; thioether N-14) | 8.28
10 | CC(C)C[C@@H]1NC(=O)[C@H](Cc2c[nH]c3ccccc23)NC(=O)[C@H](CC(=O)O)NC(=O)[C@H](Cc2ccc(OCC(=O)O)cc2)NC(=O)[C@H](CCCCNC(=N)N)NC(=O)CSC[C@@H](C(=O)NCCOCCOCC(=O)N[C@@H](CCN)C(=O)NCCCCCCCCCCC(=O)O)NC(=O)[C@H](CCCCN)NC(=O)[C@H](C(C)C)NC(=O)[C@H](CC2CCCCC2)NC(=O)[C@H](CCN)NC(=O)[C@@H](C)NC(=O)[C@H](CCN)NC(=O)[C@H](C(C)C)NC(=O)[C@H](Cc2ccc(-c3ccccc3)cc2)NC1=O [Compound 3258] ({CH2CO}-[hArg]Y(Carboxymethyl)DWL[Bip]V[Dab][dA][Dab][Cha]VKC[AEEA][Dab][Aun]-OH; thioether N-14) | 7.43
11 | Cc1cccc(C[C@@H]2NC(=O)[C@H](CC(=O)O)NC(=O)[C@H](Cc3ccc(OCC(=O)O)cc3)NC(=O)[C@H](CCCCNC(=N)N)NC(=O)CSC[C@@H](C(=O)N[C@@H](CCN)C(=O)NCCCCCCCCCCC(=O)O)NC(=O)[C@H](CCCN)NC(=O)[C@H](C(C)C)NC(=O)[C@H](CC3CCCCC3)NC(=O)[C@H](CCN)NC(=O)[C@@H](CC(C)C)NC(=O)[C@H](CCCN)NC(=O)[C@H](C(C)C)NC(=O)[C@H](Cc3ccc(-c4ccccc4)cc3)NC(=O)[C@H](C(C)C)NC2=O)c1 [Compound 3259] ({CH2CO}-[hArg]Y(Carboxymethyl)D[Phe(3-Me)]V[Bip]V[Orn][dL][Dab][Cha]V[Orn]C[Dab][Aun]-OH; thioether N-14) | 7.96
12 | Cc1cccc(C[C@@H]2NC(=O)[C@H](CC(=O)O)NC(=O)[C@H](Cc3ccc(OCC(=O)O)cc3)NC(=O)[C@H](CCCCNC(=N)N)NC(=O)CSC[C@@H](C(=O)N[C@@H](CCN)C(=O)NCCCCCCCCCCC(=O)O)NC(=O)[C@H](CCCCN)NC(=O)[C@H](C(C)C)NC(=O)[C@H](CC3CCCCC3)NC(=O)[C@H](CCN)NC(=O)[C@@H](CC(C)C)NC(=O)[C@H](CCCN)NC(=O)[C@H](C(C)C)NC(=O)[C@H](Cc3ccc(-c4ccccc4)cc3)NC(=O)[C@H](C(C)C)NC2=O)c1 [Compound 3260] ({CH2CO}-[hArg]Y(Carboxymethyl)D[Phe(3-Me)]V[Bip]V[Orn][dL][Dab][Cha]VKC[Dab][Aun]-OH; thioether N-14) | 7.91
13 | CC(C)C[C@H]1NC(=O)[C@H](CCCN)NC(=O)[C@H](C(C)C)NC(=O)[C@H](Cc2ccc(-c3ccccc3)cc2)NC(=O)[C@H](C(C)C)NC(=O)[C@H](Cc2c[nH]c3ccccc23)NC(=O)[C@H](CC(=O)O)NC(=O)[C@H](Cc2ccc(OCC(=O)O)cc2)NC(=O)[C@H](CCCCNC(=N)N)NC(=O)CSC[C@@H](C(=O)NCCOCCOCC(=O)NCCCCCCCCCCC(=O)O)NC(=O)[C@H](CCCN)NC(=O)[C@H](C(C)C)NC(=O)[C@H](CC2CCCCC2)NC(=O)[C@H](CCN)NC1=O [Compound 3262] ({CH2CO}-[hArg]Y(Carboxymethyl)DWV[Bip]V[Orn][dL][Dab][Cha]V[Orn]C[AEEA][Aun]-OH; thioether N-14) | 8.17
